How the values were obtained:
Format in all cases: in vivo
[1] = system: johnsongrass (Sorghum halepense); assay: Test C preemergence
Method in brief: (§1)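 Each compound was dissolved in a non-phytotoxic solvent system containing a surfactant and sprayed either on freshly planted seeds (preemergence) or on young plants, 2 to 18 cm high (postemergence). Ratings after 12 to 14 greenhouse days ran from 0, no effect, to 100, complete control.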

[2] = system: velvetleaf (Abutilon theophrasti); assay: Test C preemergence
Method in brief: as §1

[3] = system: lambsquarters (Chenopodium album); assay: Test C preemergence
Method in brief: as §1

[4] = system: soybean (Glycine max); assay: Test C preemergence
Method in brief: as §1

[5] = system: crabgrass (Digitaria sanguinalis); assay: Test C preemergence
Method in brief: as §1

[6] = system: morningglory (Ipomoea hederacea); assay: Test C preemergence
Method in brief: as §1

[7] = system: kochia (Kochia scoparia); assay: Test C preemergence
Method in brief: as §1

[8] = system: cocklebur (Xanthium strumarium); assay: Test C preemergence
Method in brief: as §1

[9] = system: Nightshade; assay: Test C preemergence
[10] = system: woolly cupgrass (Eriochloa villosa); assay: Test C preemergence
Method in brief: as §1

[11] = system: common ragweed (Ambrosia elatior); assay: Test C preemergence; details: preemergence
Method in brief: as §1

[12] = system: Surinam grass (Brachiaria decumbens); assay: Test C preemergence
Method in brief: as §1

[13] = system: goosegrass (Eleusine indica); assay: Test C preemergence
Method in brief: as §1

[14] = system: corn (Zea mays); assay: Test C preemergence
Method in brief: as §1

[15] = system: velvetleaf (Abutilon theophrasti); assay: Test B postemergence
Method in brief: (§2)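 Greenhouse test: chemicals are formulated in a surfactant-containing non-phytotoxic solvent and applied either preemergence to planted seeds or postemergence to plants 2 to 18 cm tall. Response is rated visually versus controls after 13 to 15 days, 0 meaning no effect and 100 complete control.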

[16] = system: lambsquarters (Chenopodium album); assay: Test B postemergence
Method in brief: as §2

[17] = system: morning glory (Ipomoea hederacea); assay: Test B postemergence
Method in brief: as §2

[18] = system: barnyardgrass (Echinochloa crus-galli); assay: Test B postemergence
Method in brief: as §2

[19] = system: Surinam grass (Brachiaria decumbens); assay: Test B postemergence
Method in brief: as §2

[20] = system: corn (Zea mays); assay: Test B postemergence
Method in brief: as §2

[21] = Rate 125 g/ha, scale 0 to 100, 0 no effect, 100 complete control
[22] = preemergence, Rate 62 g/ha, scale 0 to 100
[23] = preemergence, Rate 500 g/ha, visual evaluation after 12 to 14 days
[24] = preemergence, Rate 250 g/ha, scale 0 to 100, 0 no effect, 100 complete control
[25] = Rate 250 g/ha, scale 0 to 100, 0 no effect, 100 complete control
[26] = Rate 500 g/ha, scale 0 (no effect) to 100 (complete control), 13 to 15 days

`COc1cc(N2CCC(n3ccc(C(C)C)n3)C2=O)ccc1Br` (centres unmarked) [Compound 140] was tested, and the “Plant response rating, Johnsongrass” value [1, 21] was 20, the “Plant response rating, Johnsongrass” value [1, 22] was 0 and the “Plant response rating (0 to 100), Johnsongrass” value [1, 23] was 100. For the same compound, the “Plant response rating, Johnsongrass” value [1, 24] was 100, the “Plant response rating, Velvetleaf” value [2, 21] was 70 and the “Plant response rating, Velvetleaf” value [2, 22] was 60. The “Plant response rating (0 to 100), Velvetleaf” value [2, 23] was 90, the “Plant response rating, Velvetleaf” value [2, 24] was 90 and the “Plant response rating, Lambsquarters” value [3, 21] was 100. The “Plant response rating, Lambsquarters” value [3, 22] was 100, the “Plant response rating (0 to 100), Lambsquarters” value [3, 23] was 100 and the “Plant response rating, Lambsquarters” value [3, 24] was 100. For the same compound, the “Plant response rating, Soybean” value [4, 21] was 80, the “Plant response rating, Soybean” value [4, 22] was 50 and the “Plant response rating (0 to 100), Soybean” value [4, 23] was 100. The “Plant response rating, Soybean” value [4, 24] was 100, the “Plant response rating, Crabgrass” value [5, 21] was 100 and the “Plant response rating, Crabgrass” value [5, 22] was 100. The “Plant response rating (0 to 100), Crabgrass” value [5, 23] was 100, the “Plant response rating, Crabgrass” value [5, 24] was 100 and the “Plant response rating, Morningglory” value [6, 21] was 90. For the same compound, the “Plant response rating, Morningglory” value [6, 22] was 70, the “Plant response rating (0 to 100), Morningglory” value [6, 23] was 100 and the “Plant response rating, Morningglory” value [6, 24] was 100. For the same compound, the “Plant response rating, Kochia” value [7, 21] was 100, the “Plant response rating, Kochia” value [7, 22] was 100 and the “Plant response rating (0 to 100), Kochia” value [7, 23] was 100. The “Plant response rating, Kochia” value [7, 24] was 100, the “Plant response rating, Cocklebur” value [8, 21] was 30 and the “Plant response rating, Cocklebur” value [8, 22] was 30. The “Plant response rating, Cocklebur” value [8, 24] was 90, the “Plant response rating, Nightshade” value ([9]; Rate 62 g/ha, scale 0 to 100) was 100 and the “Plant response rating, Nightshade” value [9, 21] was 100. The “Plant response rating, Nightshade” value [9, 25] was 100, the “Plant response rating, Cupgrass, Woolly” value [10, 21] was 100 and the “Plant response rating, Cupgrass, Woolly” value [10, 22] was 100. The “Plant response rating (0 to 100), Cupgrass, Woolly” value [10, 23] was 100, the “Plant response rating, Cupgrass, Woolly” value [10, 24] was 100 and the “Plant response rating, Ragweed, Common” value ([11]; Rate 62 g/ha, scale 0 to 100) was 100. The “Plant response rating (0 to 100), Ragweed, Common” value ([11]; Rate 500 g/ha, visual evaluation after 12 to 14 days) was 100, the “Plant response rating, Ragweed, Common” value [11, 25] was 100 and the “Plant response rating, Surinam grass” value [12, 21] was 0. For the same compound, the “Plant response rating, Surinam grass” value [12, 22] was 0, the “Plant response rating (0 to 100), Surinam grass” value [12, 23] was 100 and the “Plant response rating, Surinam grass” value [12, 24] was 90. The “Plant response rating, Goosegrass” value [13, 21] was 100, the “Plant response rating, Goosegrass” value [13, 22] was 100 and the “Plant response rating (0 to 100), Goosegrass” value [13, 23] was 100. The “Plant response rating, Goosegrass” value [13, 24] was 100, the “Plant response rating, Corn” value [14, 21] was 20 and the “Plant response rating, Corn” value [14, 22] was 20. For the same compound, the “Plant response rating (0 to 100), Corn” value [14, 23] was 30, the “Plant response rating, Corn” value [14, 24] was 30 and the “Plant response rating, Velvetleaf” value [15, 21] was 0. The “Plant response rating, Velvetleaf” value [15, 26] was 60, the “Plant response rating, Lambsquarters” value [16, 21] was 70 and the “Plant response rating, Lambsquarters” value [16, 26] was 100. For the same compound, the “Plant response rating, Morningglory” value [17, 21] was 0, the “Plant response rating, Morningglory” value [17, 26] was 100 and the “Plant response rating, Barnyardgrass” value [18, 21] was 0. For the same compound, the “Plant response rating, Barnyardgrass” value [18, 26] was 80, the “Plant response rating, Surinam grass” value [19, 21] was 0 and the “Plant response rating, Surinam grass” value [19, 26] was 0. For the same compound, the “Plant response rating, Corn” value [20, 21] was 0 and the “Plant response rating, Corn” value [20, 26] was 0.

— patent US7138361B2, “Herbicidal heterocycles” (E. I. du Pont de Nemours and Company, priority 2000, dated 2006)
